# From patent US20180344641A1, “MESOPOROUS SILICA NANOPARTICLES AND SUPPORTED LIPID BI-LAYER NANOPARTICLES FOR BIOMEDICAL APPLICATIONS” (priority 2015, published 2018)
# Experiments:
# [1] = Federico et al., 2012; cited from earlier work
# [2] = test system: REH+EGFR cells; assay: Cell viability, CellTiter-Glo 2.0 Assay; format: cell-based, human; conditions: free GEM 0 to 30 uM 1 hour, viability at 24 hours
# Protocol: (§1) Whole human blood was acquired from healthy donors with informed consent and stabilized in K2EDTA tubes (BD Biosciences). hRBCs were purified following reported procedure (Liao et al., 2011), then incubated with either bare mMSNs or protocells (25, 50, 100, 200, and 400 μg/mL) at 37° C. After 3 hours of exposure, samples were centrifuged at 300 g for 3 minutes, then 100 μL of supernatant from each sample was transferred to a 96-well plate. Hemoglobin absorbance was measured using a BioTek microplate reader (Winooski, Vt.) at 541 nm. The percent hemolysis of each sample was quantified using a reported equation (Liao et al., 2011). In addition, we examined the biocompatibility of anti-EGFR targeted protocells in vitro. We incubated about 1.5×10^5 cells/mL of REH and REH+EGFR cell lines with either 12.5, 25, 50, 100, and 200 μg/mL of anti-EGFR targeted protocells in complete medium for 1 hour at 37° C. Cells were washed twice in complete media and transferred to a 96-well plate for 24 hours at 37° C. Cell viability was assessed by CellTiter-Glo® 2.0 Assay as measured by BioTek microplate reader. The cell viability was calculated as a percentage of non-protocell treated sample.
# (§2) […] Cell viability was assessed by CellTiter-Glo® 2.0 Assay as measured by BioTek microplate reader. The cell viability was calculated as a percentage of non-protocell treated sample.
# [3] = test system: REH cells; assay: Cell viability, CellTiter-Glo 2.0 Assay; format: cell-based, human; conditions: free GEM 0 to 30 uM 1 hour, viability at 24 hours
# Protocol: as §1, §2
smiles,measurement,setting,value
"Nc1ccn([C@@H]2O[C@H](CO)[C@@H](O)C2(F)F)c(=O)n1 [GEM, Gemcitabine]",plasma half-life,[1],8 to 17 min
same,viability of REH+EGFR cells,[2],Loss in cell viability of REH and REH+EGFR cells
same,viability of REH cells,[3],Loss in cell viability of REH and REH+EGFR cells
